molecular target: T1, KRAS G12C 1-169, his-tagged protein, GDP-loaded (Homo sapiens, UniProt P01116, G12C); test: Biochemical assay: covalent binding to KRAS G12C analyzed by mass spectrometry; conditions: compounds 48-246, measured at 2 h; note: test concentration or dose not given here
T1 construct: KRAS G12C 1-169, his-tagged protein, GDP-loaded
T1 sequence (P01116 1-169 isoform P01116-2 G12C): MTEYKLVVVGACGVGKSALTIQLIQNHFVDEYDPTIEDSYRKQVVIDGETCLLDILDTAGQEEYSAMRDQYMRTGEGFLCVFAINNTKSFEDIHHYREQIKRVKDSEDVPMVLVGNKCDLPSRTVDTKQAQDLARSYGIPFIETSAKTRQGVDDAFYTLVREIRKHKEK

Structure (SMILES)	Binding %
C=CC(=O)N1CCN(c2cnnc3cc(-c4c(O)cccc4F)c(Cl)cc23)CC1 [Compound I-231, 1-(4-(6-chloro-7-(2-fluoro-6-hydroxyphenyl)ciinolin-4-yl)piperazin-1-yl)prop-2-en-1-one]	+++ (+++indicates binding activity greater than 50% and up to 75%)
C=CC(=O)N1CCN(c2cnnc3cc(-c4ccc(F)cc4F)c(Cl)cc23)CC1 [Compound I-221, 1-(4-(6-chloro-7-(2,4-difluorophenyl)cinnolin-4-yl)piperazin-1-yl)prop-2-en-1-one]	++ (++indicates binding activity greater than 25% and up to 50%)
C=CC(=O)N1CCN(c2ncnc3c(F)c(-c4c(O)ccc5ccccc45)c(Cl)cc23)CC1 [Compound I-235, 1-(4-(6-chloro-8-fluoro-7-(2-hydroxynaphthalen-1-yl)quinazolin-4-yl)piperazin-1-yl)prop-2-en-1-one]	+++ (+++indicates binding activity greater than 50% and up to 75%)
C=CC(=O)N1CCN(c2ncnc3cc(-c4c(F)cccc4C#N)c(Cl)cc23)CC1 [Compound I-192, 2-(4-(4-acryloylpiperazin-1-yl)-6-chloroquinazolin-7-yl)-3-fluorobenzonitrile]	++ (++indicates binding activity greater than 25% and up to 50%)
C=CC(=O)N1CCN(c2ncnc3cc(-c4cccc5c4CC(=O)N5)c(Cl)cc23)CC1 [Compound I-160, 4-(4-(4-acryloylpiperazin-1-yl)-6-chloroquinazolin-7-yl)indolin-2-one]	+ (+indicates binding activity from 5% to 25%)
C=CC(=O)N1CCN(c2ncnc3cc(-c4c(F)cccc4F)c(Cl)cc23)CC1 [Compound I-132, 1-(4-(6-chloro-7-(2,6-difluorophenyl)quinazolin-4-yl)piperazin-1-yl)prop-2-en-1-one]	+++ (+++indicates binding activity greater than 50% and up to 75%)
C=CC(=O)N1CCN(c2ncnc3cc(-c4cc(-c5cn[nH]c5)ccc4F)c(Cl)cc23)CC1 [Compound I-188, 1-(4-(6-chloro-7-(2-fluoro-5-(1H-pyrazol-4-yl)phenyl)quinazolin-4-yl)piperazin-1-yl)prop-2-en-1-one]	+++ (+++indicates binding activity greater than 50% and up to 75%)
C=CC(=O)N1CCN(c2ncnc3cc(-c4cnc(N)nc4C)c(Cl)cc23)CC1 [Compound I-190, 1-(4-(7-(2-amino-4-methylpyrimidin-5-yl)-6-chloroquinazolin-4-yl)piperazin-1-yl)prop-2-en-1-one]	+ (+indicates binding activity from 5% to 25%)
C=CC(=O)N1CCN(c2ncnc3cc(-c4ccccc4-c4cncs4)c(Cl)cc23)CC1 [Compound I-187, 1-(4-(6-chloro-7-(2-(thiazol-5-yl)phenyl)quinazolin-4-yl)piperazin-1-yl)prop-2-en-1-one]	+++ (+++indicates binding activity greater than 50% and up to 75%)

same assay, conditions: compounds 247-342, measured at 30 min

Structure (SMILES)	Binding %
C=CC(=O)N1CCN(c2ncnc3c(Cl)c(-c4c(O)ccc5ccccc45)c(Cl)cc23)CC1 [Compound 303, 1-(4-(6,8-dichloro-7-(2-hydroxynaphthalen-1-yl)quinazolin-4-yl)piperazin-1-yl)prop-2-en-1-one]	++ (++indicates binding activity greater than 25% and up to 50%)

same assay, conditions: determined at 24 hrs

Structure (SMILES)	Binding %
C=CC(=O)NC1CN(C2CN(C(=O)CNc3cc(Cl)c(Cl)cc3O)C2)C1 [II-3, N-(1′-(2-(4,5-dichloro-2-hydroxyphenyl-amino)acetyl)-1,3′-biazetidin-3-yl)acrylamide]	++++ (++++indicates binding activity greater than 50%)
C=CC(=O)N1CC(N2CCN(C(=O)CNc3cc(Cl)c(Cl)cc3C(F)(F)F)CC2)C1 [II-26, 1-(3-(4-(2-(4,5-dichloro-2-(trifluoromethyl)-phenylamino)acetyl)-piperazin-1-yl)azetidin-1-yl)prop-2-en-1-one]	+ (+indicates binding activity from 5% to 15%)

Source: patent US10111874B2, “Combination therapies for treatment of cancer” (Araxes Pharma LLC, priority 2014, dated 2018)
